# From US11964973B2 (priority 2019, dated 2024)
# System: human venous whole blood, CD8 positive population (pERK)
# Experiment: DGK human whole blood pERK assay
# Assay type: cell-based
# Conditions: Homo sapiens, CD8 positive, human whole blood pERK; read-out: DGK HWB
# Procedure: Assay 11: DGK Human Whole Blood pERK Assay
# Human whole blood ERK phosphorylation assay was performed with human venous whole blood obtained from healthy donors (drawn with Heparin as anti-coagulant). […] Heparinized human whole blood was added to the compound plate at 9 μL per well and incubated for one hour at 37° C. in a humidified 95%, air/5% CO2 incubator. After one hour of compound incubation, 1 μL of human anti-CD3 antibody (in-house) in the presence of cross-linking antibody goat anti-mouse IgG (4 μg/mL) was added to the well at 1 μg/mL final concentration for stimulation of pathway and additionally incubated for 15 minutes at 37° C. […] Samples analyzed using the Intellicyt® iQue Screener PLUS. The pERK activation was quantitated by the percentage of pERK positive population within CD8 positive population.
row,SMILES,EC50
1,"CCO[C@H]1CN(c2cc(=O)n(C)c3ccc(C#N)nc23)CC[C@@H]1Oc1ccccc1 (relative stereo) [Example 341, trans-8-(3-Ethoxy-4-phenoxypiperidin-1-yl)-5-methyl-6-oxo-5,6-dihydro-1,5-naphthyridine-2-carbonitrile]",590 nM
2,"CCO[C@H]1CN(c2cc(=O)n(C)c3ccc(C#N)nc23)CC[C@@H]1Oc1ccc(S(C)(=O)=O)cc1 [Example 354, 8-((3S,4S)-3-ethoxy-4-(4-(methylsulfonyl)phenoxy)piperidin-1-yl)-5-methyl-6-oxo-5,6-dihydro-1,5-naphthyridine-2-carbonitrile]",20000 nM
3,"CC[C@@H]1CN(c2cc(=O)n(C)c3ccc(C#N)nc23)[C@H](C)C[C@H]1Oc1cccc(C(F)(F)F)c1 [Example 310, 8-((2R,4R,5R)-5-ethyl-2-methyl-4-(3-(trifluoromethyl)phenoxy)piperidin-1-yl)-5-methyl-6-oxo-5,6-dihydro-1,5-naphthyridine-2-carbonitrile]",9900 nM

# Same assay, conditions: Homo sapiens, CD8 positive, read-out: DGK HWB, human whole blood pERK
row,SMILES,EC50
1,"C[C@@H]1CN(c2cc(=O)n(C)c3ccc(C#N)nc23)[C@@H](C)CC1N(C)Cc1ccc(F)cc1 (single isomer, unassigned) [Example 331]",11000 nM
2,"CC(C)Oc1ccc(OC2C[C@@H](C)N(c3nc(=O)n(C)c4ccc(C#N)nc34)C[C@@H]2C)nc1 (stereo partly drawn) [Example 248, 4-((2R,5S)-4-((5-isopropoxypyridin-2-yl)oxy)-2,5-dimethylpiperidin-1-yl)-1-methyl-2-oxo-1,2-dihydropyrido[3,2-d]pyrimidine-6-carbonitrile]",740 nM
3,"CCO[C@H]1CN(c2cc(=O)n(C)c3ccc(C#N)nc23)CC[C@@H]1Oc1ccc(OC(C)C)nn1 [Example 375, 8-((3S,4S)-3-ethoxy-4-((6-isopropoxypyridazin-3-yl)oxy)piperidin-1-yl)-5-methyl-6-oxo-5,6-dihydro-1,5-naphthyridine-2-carbonitrile]",2300 nM
4,"C[C@@H]1CC(Oc2cccc(C(F)(F)F)c2)[C@@H](C)CN1c1nc(=O)n(C)c2ccc(C#N)nc12 (stereo in doubt) [Example 251, 4-((2R,5S)-2,5-dimethyl-4-(3-(trifluoromethyl)phenoxy)piperidin-1-yl)-1-methyl-2-oxo-1,2-dihydropyrido[3,2-d]pyrimidine-6-carbonitrile]",1800 nM
5,"CC[C@@H]1CN(c2nc(=O)n(C)c3ccc(C#N)nc23)[C@H](C)C[C@@H]1Oc1ccc(OC(C)C)cn1 [Example 305, 4-((2R,4S,5R)-5-ethyl-4-((5-isopropoxypyridin-2-yl)oxy)-2-methylpiperidin-1-yl)-1-methyl-2-oxo-1,2-dihydropyrido[3,2-d]pyrimidine-6-carbonitrile]",730 nM

# Same assay, conditions: human whole blood pERK; read-out: DGK HWB
row,SMILES,EC50
1,"CCO[C@H]1CN(c2cc(=O)n(C)c3ccc(C#N)nc23)CC[C@@H]1Oc1ccccc1 (relative stereo) [Example 342, trans-8-(3-Ethoxy-4-phenoxypiperidin-1-yl)-5-methyl-6-oxo-5,6-dihydro-1,5-naphthyridine-2-carbonitrile]",840 nM
2,"CC1CN(c2c(C#N)c(=O)n(C)c3ccc(C#N)nc23)CCC1N(C)C1CCC(F)(F)CC1 (single isomer, unassigned) [Example 330]",20000 nM
3,"CCO[C@H]1CN(c2cc(=O)n(C)c3ccc(C#N)nc23)CC[C@@H]1Oc1cccc(C(F)(F)F)n1 (relative stereo) [Example 363, trans-8-(3-Ethoxy-4-((6-(trifluoromethyl)pyridin-2-yl)oxy)piperidin-1-yl)-5-methyl-6-oxo-5,6-dihydro-1,5-naphthyridine-2-carbonitrile]",1100 nM
4,CCO[C@H]1CN(c2cc(=O)n(C)c3ccc(C#N)nc23)CC[C@@H]1Oc1nc2ccccc2s1 [Example 373],1600 nM
5,"CCO[C@H]1CN(c2cc(=O)n(C)c3ccc(C#N)nc23)CC[C@@H]1Oc1ccc(C(F)(F)F)cc1 [Example 343, 8-((3S,4S)-3-ethoxy-4-(4-(trifluoromethyl)phenoxy)piperidin-1-yl)-5-methyl-6-oxo-5,6-dihydro-1,5-naphthyridine-2-carbonitrile]",320 nM
6,"CCO[C@H]1CN(c2cc(=O)n(C)c3ccc(C#N)nc23)CC[C@@H]1Oc1cccc(C(F)(F)F)n1 (relative stereo) [Example 364, trans-8-(3-Ethoxy-4-((6-(trifluoromethyl)pyridin-2-yl)oxy)piperidin-1-yl)-5-methyl-6-oxo-5,6-dihydro-1,5-naphthyridine-2-carbonitrile]",20000 nM
7,"CCO[C@H]1CN(c2cc(=O)n(C)c3ccc(C#N)nc23)CC[C@@H]1Oc1ccc2oc(C)nc2c1 [Example 356, 8-((3S,4S)-3-ethoxy-4-((2-methylbenzo[d]oxazol-5-yl)oxy)piperidin-1-yl)-5-methyl-6-oxo-5,6-dihydro-1,5-naphthyridine-2-carbonitrile]",3900 nM

# Same assay, conditions: human whole blood, CD8 positive population, anti-CD3 stimulation; top concentration 20 μM; read-out: DGK HWB (human whole blood pERK)
row,SMILES,EC50
1,"Cn1c(=O)cc(N2CC[C@@H](Oc3cccc(C(F)(F)F)c3)[C@H](OCC3CC3)C2)c2nc(C#N)ccc21 [Example 388, 8-((3R,4R)-3-(cyclopropylmethoxy)-4-(3-(trifluoromethyl)phenoxy)piperidin-1-yl)-5-methyl-6-oxo-5,6-dihydro-1,5-naphthyridine-2-carbonitrile]",20000 nM

# Same assay, conditions: read-out: DGK HWB; human whole blood pERK
row,SMILES,EC50
1,"C[C@@H]1CN(c2cc(=O)n(C)c3ccc(C#N)nc23)[C@@H](C)CC1N(C)Cc1ccc(F)cc1 (single isomer, unassigned) [Example 332]",16000 nM
2,"CCO[C@H]1CN(c2cc(=O)n(C)c3ccc(C#N)nc23)CC[C@@H]1Oc1ccnc(C(F)(F)F)c1 [Example 359, 8-((3S,4S)-3-ethoxy-4-((2-(trifluoromethyl)pyridin-4-yl)oxy)piperidin-1-yl)-5-methyl-6-oxo-5,6-dihydro-1,5-naphthyridine-2-carbonitrile]",20000 nM
3,"C[C@@H]1CN(c2nc(=O)n(C)c3ccc(C#N)nc23)[C@H](C)CC1Oc1cccc(C(F)(F)F)c1 (stereo partly drawn) [Example 256, 4-((2R,5R)-2,5-dimethyl-4-(3-(trifluoromethyl)phenoxy)piperidin-1-yl)-1-methyl-2-oxo-1,2-dihydropyrido[3,2-d]pyrimidine-6-carbonitrile]",4700 nM
4,"CCO[C@H]1CN(c2cc(=O)n(C)c3ccc(C#N)nc23)CC[C@@H]1Oc1ccnc(C(F)(F)F)c1 [Example 360, 8-((3S,4S)-3-ethoxy-4-((2-(trifluoromethyl)pyridin-4-yl)oxy)piperidin-1-yl)-5-methyl-6-oxo-5,6-dihydro-1,5-naphthyridine-2-carbonitrile]",700 nM
5,"CCO[C@H]1CN(c2cc(=O)n(C)c3ccc(C#N)nc23)CC[C@@H]1Oc1ccc(Cl)c(F)c1 [Example 357, 8-((3S,4S)-4-(4-chloro-3-fluorophenoxy)-3-ethoxypiperidin-1-yl)-5-methyl-6-oxo-5,6-dihydro-1,5-naphthyridine-2-carbonitrile]",20000 nM
6,"CC(C)Oc1ccc(OC2C[C@H](C)N(c3nc(=O)n(C)c4ccc(C#N)nc34)C[C@H]2C)nc1 (stereo partly drawn) [Example 247, 4-((2S,5R)-4-((5-isopropoxypyridin-2-yl)oxy)-2,5-dimethylpiperidin-1-yl)-1-methyl-2-oxo-1,2-dihydropyrido[3,2-d]pyrimidine-6-carbonitrile]",740 nM
7,"C[C@@H]1CN(c2nc(=O)n(C)c3ccc(C#N)nc23)[C@H](C)CC1Oc1cccc(C(F)(F)F)c1 (stereo partly drawn) [Example 257, 4-((2R,5R)-2,5-dimethyl-4-(3-(trifluoromethyl)phenoxy)piperidin-1-yl)-1-methyl-2-oxo-1,2-dihydropyrido[3,2-d]pyrimidine-6-carbonitrile]",800 nM
